Measurements reported in publication PMC4630399, “Charge-Based Inhibitors of Amylin Fibrillization and Toxicity” (Journal of Diabetes Research, 2015).
Entries after “also recorded” stand apart in the source; their conditions may differ. Like-named read-outs stand apart in the source and are kept apart here. Positions of bridges follow the written chain, without caps; N, C: chain ends. Residues, ends and D or L forms follow the SMILES beside them. No end group written: not given here.

Key:
[1] = set-up: method as in 2 sources, ref 21 = [21]; PMID 23016872; doi:10.1021/bi300574r; 21 Marek P. J. Patsalo V. Green D. F. Raleigh D. P. Ionic strength effects on amyloid formation by amylin are a complicated interplay among debye screening, ion selectivity, and hofmeister effects Bio ||| ref 7 = [7]; PMID 22206987; doi:10.1016/j.jmb.2011.12.032; 7 Cao P. Tu L.-H. Abedini A. Sensitivity of amyloid formation by human islet amyloid polypeptide to mutations at residue 20 Journal of Molecular Biology 2012 421 2-3 282 295 10.1016/j.jmb.2011.12.032; settings: compared to WT-amylin; cited from earlier work
Text: In type 2 diabetes, the positively charged 37-residue hormone amylin misfolds into cationic fibrils which have been implicated in the destruction of the pancreatic β-cells that make insulin and amylin, thus contributing to pathology. Amylin is a particularly favorable system for investigating the roles of charges in fibrillization, since the core of the intermolecular β-sheet fibril structure has only one pH-titratable group, His18 [9].

WT-amylin fibrillization = settings: cited from earlier work
Text: In type 2 diabetes, the positively charged 37-residue hormone amylin misfolds into cationic fibrils which have been implicated in the destruction of the pancreatic β-cells that make insulin and amylin, thus contributing to pathology. Amylin is a particularly favorable system for investigating the roles of charges in fibrillization, since the core of the intermolecular β-sheet fibril structure has only one pH-titratable group, His18 [9]. The histidine acts as an electrostatic switch, inhibiting fibrillization in its charged state at acidic pH and favoring fibrillization in its uncharged ... || An IC50 analysis of the inhibition data was performed to obtain quantitative information (Figure 5). The Arg-1 concentration-dependence for the inhibition of WT-amylin fibril elongation rates gives an IC50 value of 0.6 ± 0.5 μM. For Arg-2 and Mem-T, the IC50 values are ~10 μM (Figure 5(a)). In addition to effecting elongation rates, Arg-2 increases the lag times for WT-amylin fibrillization with an IC50 of ~0.1 μM. […] Moreover, addition of a single charged lysine residue ...

[2] = test system: MIN6 models of pancreatic β-cells; settings: neutral pH, cited from earlier work
Text: In type 2 diabetes, the positively charged 37-residue hormone amylin misfolds into cationic fibrils which have been implicated in the destruction of the pancreatic β-cells that make insulin and amylin, thus contributing to pathology. Amylin is a particularly favorable system for investigating the roles of charges in fibrillization, since the core of the intermolecular β-sheet fibril structure has only one pH-titratable group, His18 [9]. The histidine acts as an electrostatic switch, inhibiting fibrillization in its charged state at acidic pH and favoring fibrillization in its uncharged ... || The motivation for the studies described in this work was to see if electrostatic charge repulsion could be exploited to design new types of inhibitors of amylin fibrillization and cytotoxicity. […] Moreover, addition of a single charged lysine residue ...

[3] = TEM of aggregates formed by peptides alone; assay type: physicochemical; settings: 80 μM peptide, 2 days, 20 mM phosphate pH 7.4, 37°C, no agitation
Method: (§1) Samples containing 80 μM concentrations of WT-amylin and the three analogs were incubated without agitation at a temperature of 37°C in 20 mM phosphate buffer (pH 7.4). For the inhibition reactions, samples contained WT-amylin at an 80 μM concentration, together with 160 μM of Arg-1, Arg-2, or Mem-T analogs. Aliquots from the reactions were removed after 2 days for TEM imaging. The aliquots were blotted onto carbon-coated 400-mesh Maxtaform copper grids (Ted Pella Inc. Redding, CA) for 1–3 min, followed by negative staining with 1% uranyl acetate. TEM images were recorded on an FEI Tecnai G^2 Spirit BioTwin transmission electron microscope equipped with an AMT XR-40 camera.

[4] = ThT assay of fibrillization kinetics, peptides alone; assay type: physicochemical
Method: (§2) The time course of fibrillization in solution was monitored using 100–200 μL amylin samples, contained in white polystyrene clear bottom 96-well plates (Corning Inc., Corning, NY). Plates were covered with a clear polyester sealing tape (Fisher Scientific, Agawam, MA) to prevent evaporation. Stock solutions of 1.1 mM WT-amylin and inhibitor peptides were prepared in 100% DMSO, which dissolves and disaggregates amylin fibrils, and were stored at −80°C when not in use. Starting from the 1.1 mM stock solutions in 100% DMSO, samples for fibrillization reactions were prepared to contain 20 μM amylin and 10 μM ultrapure ThT, in 20 mM sodium phosphate buffer, pH 7.4, and a final DMSO concentration of 2% (v/v). For experiments using larger 400 μM concentrations of Arg-2 and Mem-T, the solutions were prepared by diluting 100% DMSO stock solutions of 20 mM peptide to a final DMSO concentration of 2% (v/v). Amylin was the last component added to the samples for the kinetic reactions, in order to reduce the dead time for the experiments. The plates were incubated at 25°C without agitation. Fluorescence intensity was recorded at 2 min intervals with excitation at 440 nm and emission at 490 nm on a Fluoroskan Ascent 2.5 fluorescence plate reader. Fibrillization reactions for the peptides alone were performed in triplicate and for analog-peptide inhibition of WT-amylin in duplicate, to estimate experimental uncertainties in kinetic parameters.

WT-amylin [5] = target: T1, WT-amylin (Homo sapiens, UniProt P10997); assay: TEM of WT-amylin fibrils formed in presence of inhibitor peptides; assay type: biochemical; set-up: purchased Biopeptide (San Diego, CA); host or cells: solid-phase synthesis; settings: 80 μM WT-amylin with 160 μM analog, 20 mM sodium phosphate pH 7.4, 1% DMSO, 37°C, 24 h
T1 sequence (P10997 34-70 limits assumed): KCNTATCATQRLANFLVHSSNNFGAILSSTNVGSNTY
Method: as §1
Figure 8 TEM images of fibrils formed from 80 μM WT amylin in the presence or absence of inhibitor peptides. (a) WT amylin alone, (b) with 160 μM Arg-1, (c) with 160 μM Arg-2, and (d) with 160 μM Mem-T. Aliquots were removed for TEM imaging 24 h after the fibrillization reactions were started. Reactions were carried out in 20 mM sodium phosphate (pH 7.4), 1% DMSO (v/v), at 37°C.

WT-amylin [6] = target: T1, WT-amylin; assay: ThT assay, inhibition of WT-amylin fibrillization by analogs added in trans; assay type: biochemical; set-up: purchased Biopeptide (San Diego, CA); host or cells: solid-phase synthesis; settings: 20 μM WT-amylin
Method: as §2, with “Starting from the 1.1 mM stock solutions in 100% DMSO, samples for fibrillization reactions were prepared to contain 20 μM amylin and 10 μM ultrapure ThT, in 20 mM sodium phosphate buffer, pH 7.4, and a final DMSO concentration of 2% (v/v).” left out

[7] = test system: WT-amylin cytotoxicity towards MIN6 mouse model of pancreatic β-cells; assay: Protection of MIN6 cells against WT-amylin cytotoxicity (Alamar Blue); settings: 160 μM analog : 80 μM WT-amylin (2 : 1)
Method: (§3) The stock solutions were diluted with FBS-free DMEM and sonicated continuously for 5 min at 75% amplitude before use. FBS was subsequently added to a concentration of 15% (v/v), giving final amylin concentrations of 40, 80, and 160 μM. The final DMSO concentration for all cytotoxicity experiments was 1% (v/v).
(§4) Cytotoxicity was measured using the mouse insulinoma 6 (MIN6) cell line model of β-pancreatic cells, which were a gift from Dr. Anil Rustgi (University of Pennsylvania). Cells were seeded at a density of 20,000 per 100 μL in black clear-bottom 96-well plates. The cells were grown in DMEM with 15% FBS, 25 mM glucose, 2 mM L-glutamine, […] sodium pyruvate, 55 μM β-mercaptoethanol, 1000 units/mL penicillin, and 100 μg/mL streptomycin, for 20 h at 37°C in a humidified incubator with 5% CO2. […] The cells were incubated for another 24 h followed by the addition of 10% (v/v) of the redox indicator dye Alamar Blue at the concentration supplied by the manufacturer (Invitrogen). Fluorescence, due to the reduction of Alamar Blue by viable cells, was measured after 6 h, using excitation and emission wavelengths of 544 and 590 nm, respectively. Cell viability was calculated from the ratio of Alamar Blue fluorescence in treated to untreated cells. Uncertainties were calculated as the SEMs of triplicate measurements.

[8] = test system: MIN6 mouse model of pancreatic β-cells; settings: melittin compared with 160 μM WT-amylin
Method: as §3, §4

Molecule: S20K: amylin with the S20K mutation (KCNTATCATQRLANFLVHSKNNFGAILSSTNVGSNTY; not fully specified (C-terminus); ends and bridges not checked; UniProt P10997 34-70, looked up, variant S20K)
- fibrillization of mutant amylin [1]: much slower fibrillization; also recorded: fibrillizes much more slowly
- inhibition of WT-amylin fibrillization (WT-amylin fibrillization; added in trans): inhibit fibrillization of the WT-amylin peptide; also recorded: inhibits fibrillization of WT-amylin when added in trans

Molecule: H18R: H18R mutant of amylin (KCNTATCATQRLANFLVRSSNNFGAILSSTNVGSNTY; not fully specified (C-terminus); ends and bridges not checked; UniProt P10997 34-70, looked up, variant H18R)
- cytotoxicity to β-cells [2]: not cytotoxic to β-cells
- cytotoxicity to β-cells ([2]; listed as Substitution of a positively charged arginine at position 18): lowers cytotoxicity to MIN6 models of pancreatic β-cells compared to WT-amylin

Molecule: CC(C)C[C@H](NC(=O)[C@H](CCCNC(=N)N)NC(=O)[C@H](CCC(N)=O)NC(=O)[C@@H](NC(=O)[C@H](C)NC(=O)[C@@H]1CSSC[C@H](NC(=O)[C@@H](N)CCCCN)C(=O)N[C@@H](CC(N)=O)C(=O)N[C@@H]([C@@H](C)O)C(=O)N[C@@H](C)C(=O)N[C@@H]([C@@H](C)O)C(=O)N1)[C@@H](C)O)C(=O)N[C@@H](C)C(=O)N[C@@H](CC(N)=O)C(=O)N[C@@H](Cc1ccccc1)C(=O)N[C@@H](CC(C)C)C(=O)N[C@H](C(=O)N[C@@H](Cc1c[nH]cn1)C(=O)N[C@@H](CO)C(=O)N[C@@H](CO)C(=O)N[C@@H](CC(N)=O)C(=O)N[C@@H](CC(N)=O)C(=O)N[C@@H](CCCNC(=N)N)C(=O)N[C@@H](CCCNC(=N)N)C(=O)N[C@@H](CCCNC(=N)N)C(=O)N[C@@H](CCCNC(=N)N)C(=O)N[C@@H](CC(C)C)C(=O)N[C@@H](CO)C(=O)N[C@@H](CO)C(=O)N[C@H](C(=O)N[C@@H](CC(N)=O)C(=O)N[C@H](C(=O)NCC(=O)N[C@@H](CO)C(=O)N[C@@H](CC(N)=O)C(=O)N[C@H](C(=O)N[C@@H](Cc1ccc(O)cc1)C(N)=O)[C@@H](C)O)C(C)C)[C@@H](C)O)C(C)C [Arg-2] (H-KCNTATCATQRLANFLVHSSNNRRRRLSSTNVGSNTY-NH2; disulfide 2-7 (inferred); N-terminus assumed)
- aggregate morphology by TEM [3]: only detected amorphous aggregates with nonfibrillar morphologies; also recorded: few if any fibrils
- fibrillization detected (ThT) ([4]; 20 μM peptide, 150 mM NaCl, pH 7.4, 25°C): failed to fibrillize
- fibrillization detected (ThT) ([4]; 400 μM peptide, pH 7.4, 2% DMSO, 25°C): still failed to fibrillize
- fibrillization of peptide on its own (overall) ([4]; ThT, all conditions tested): did not form fibrils under any of the conditions tested; also recorded: did not form fibrils even at high concentrations of the peptide and salt
- TEM of WT-amylin fibrils formed with inhibitor (WT-amylin [5]): somewhat fewer fibrils and a greater amount of short fibrils
- effect on WT-amylin fibrillization lag time (WT-amylin [6]; 150 mM NaCl): increased with increasing concentrations
- reduction of WT-amylin fibril elongation rate (WT-amylin [6]; 150 mM NaCl, analog 0.001 to 120 μM): 8–10 fold
- salt dependence of inhibition of elongation rate (WT-amylin [6]; varying NaCl): A very similar effect is seen; also recorded: more effective at physiological salt concentration or higher than in the absence of salt
- protection against WT-amylin cytotoxicity [7]: protects against cytotoxicity

Molecule: melittin
- viability of MIN6 cells, positive control [8]: comparable to the value obtained with the potent toxin melittin

Molecule: heparin
- effect on WT-amylin fibrillization (WT-amylin fibrillization): enhance fibrillization of WT-amylin
